US12060352B2, “Substituted pyrrolo[2,3-d]pyrimidines having ectonucleotide pyrophosphatase-phosphodiesterase inhibitory activity” (KOREA INSTITUTE OF SCIENCE AND TECHNOLOGY, priority 2021, dated 2024)
Where a name gives a salt, the structure may show the parent alone.

Target: T1, human recombinant ENPP1 (Homo sapiens, UniProt P22413)
T1 construct: purchased R&D Systems
T1 sequence (P22413 1-925): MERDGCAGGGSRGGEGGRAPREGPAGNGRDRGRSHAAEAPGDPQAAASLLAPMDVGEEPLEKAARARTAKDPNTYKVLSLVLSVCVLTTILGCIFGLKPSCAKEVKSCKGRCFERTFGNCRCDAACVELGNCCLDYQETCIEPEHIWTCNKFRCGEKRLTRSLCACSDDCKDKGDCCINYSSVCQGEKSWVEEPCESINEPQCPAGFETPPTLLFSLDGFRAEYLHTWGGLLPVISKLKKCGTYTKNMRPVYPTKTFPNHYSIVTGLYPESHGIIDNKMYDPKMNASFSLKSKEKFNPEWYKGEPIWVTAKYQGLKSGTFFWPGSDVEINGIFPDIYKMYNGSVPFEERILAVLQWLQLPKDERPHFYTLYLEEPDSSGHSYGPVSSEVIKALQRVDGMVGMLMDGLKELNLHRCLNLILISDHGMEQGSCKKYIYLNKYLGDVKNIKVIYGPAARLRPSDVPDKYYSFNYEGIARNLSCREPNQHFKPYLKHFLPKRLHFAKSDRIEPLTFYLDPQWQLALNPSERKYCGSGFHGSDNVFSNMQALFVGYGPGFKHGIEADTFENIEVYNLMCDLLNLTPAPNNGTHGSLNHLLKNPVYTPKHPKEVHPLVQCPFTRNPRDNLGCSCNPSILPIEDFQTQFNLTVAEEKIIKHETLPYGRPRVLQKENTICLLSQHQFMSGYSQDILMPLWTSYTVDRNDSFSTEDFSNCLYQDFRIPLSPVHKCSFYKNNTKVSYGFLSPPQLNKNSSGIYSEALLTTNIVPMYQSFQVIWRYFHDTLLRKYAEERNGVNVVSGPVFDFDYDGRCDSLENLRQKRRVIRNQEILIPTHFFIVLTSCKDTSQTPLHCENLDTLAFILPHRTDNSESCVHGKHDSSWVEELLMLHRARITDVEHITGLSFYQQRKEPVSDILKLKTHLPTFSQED
Experiment: ENPP1 enzyme assay with cGAMP substrate (AMP-Glo)
Type: biochemical
Conditions: human recombinant ENPP1 3 ng per reaction, cGAMP 5 μM, 37° C., 90 minutes, AMP-Glo luminescence
Description: ENPP1 hydrolyzes nucleotides or nucleotide derivatives to yield nucleoside-5′-monophosphate and pyrophosphate. In addition, ENPP1 hydrolyzes 2′,3′-cGAMP to yield 5′-adenosine monophosphate (AMP) and 5′-guanosine monophosphate (GMP). AMP obtained through the above reaction was measured using an AMP-Glo® kit (Promega). The AMP-Glo® kit includes two reagents. The first reagent terminates the AMP-producing enzyme reaction, removes ATP, and converts the produced AMP into ADP. The second reagent converts ADP into ATP, the ATP being used to generate luminescence in the luciferase reaction. The amount of luminescence measured as described above is proportional to the amount of AMP produced by ENPP1.
The final reaction mixture for an assay system contains 50 mM Tris (pH 8.5) buffer, 250 mM NaCl, 0.5 mM CaCl2, 1 μM ZnCl2, 5% glycerol, and 1% DMSO. […] The reaction was initiated by addition of cGAMP (at a final concentration of 5 μM) and carried out at 37° C. for 90 minutes. At the end of the reaction, 10 μl of AMP-Glo first reagent was added to stop the reaction, and then the reaction mixture was stored at room temperature for 1 hour. After storage, the mixture was added with 20 μl of an AMP detection solution (a mixture of AMP-Glo II reagent and Kinase-Glo at a ratio of 1:100) and stored at room temperature for 1 hour. Luminescence signals were measured using a Victor® plate reader (Perkin Elmer). The maximal activity control (containing an enzyme and a substrate in the presence of 1% DMSO; MAX) and the minimal activity control (containing a substrate and 1% DMSO; MIN) were evaluated simultaneously. In each experiment, serially diluted reference ENPP1 inhibitors were tested together. IC50 values for % residual activity versus compound concentration were determined by fitting inhibition curves using a 3-parameter variable slope in GraphPad Prism® software.

SMILES | IC50 [nM]
NCc1ccc(-c2ccnc3[nH]ccc23)cc1 [Example 10, (4-(1H-pyrrolo[2,3-b]pyridin-4-yl)phenyl)methenamine hydrochloride] | > 10000
NCc1ccc(-c2ncnc3[nH]ccc23)cc1 [Example 11, (4-(7H-pyrrolo[2,3-d]pyrimidin-4-yl)phenyl)methenamine hydrochloride] | 1000 to 10000
CC(C)(N)c1ccc(-c2ncnc3[nH]ccc23)cc1 [Example 12, 2-(4-(7H-pyrrolo[2,3-d]pyrimidin-4-yl)phenyl)propan-2-amine hydrochloride] | > 10000
CC(C)(N)c1ccc(-c2ncnc3c2ccn3-c2cccnc2)cc1 [Example 15, hydrochloride] | > 10000
CC(C)(C)OC(=O)NS(=O)(=O)NCc1ccc(-c2ccnc3[nH]ccc23)cc1 [Example 17, tert-butyl (N-(4-(1H-pyrrolo[2,3-b]pyridin-4-yl)benzyl)sulfamoyl)carbamate] | > 10000
NS(=O)(=O)NCc1ccc(-c2ccnc3[nH]ccc23)cc1 [Example 24, N-(4-(1H-pyrrolo[2,3-b]pyridin-4-yl)benzyl)sulfamide hydrochloride] | 1000 to 10000
NS(=O)(=O)NCc1ccc(-c2ncnc3[nH]ccc23)cc1 [Example 25, N-(4-(7H-pyrrolo[2,3-d]pyrimidin-4-yl)benzyl)sulfamide hydrochloride] | 1000 to 10000
CC(C)(NS(N)(=O)=O)c1ccc(-c2ncnc3[nH]ccc23)cc1 [Example 26, N-(2-(4-(7H-pyrrolo[2,3-d]pyrimidin-4-yl)phenyl)propan-2-yl)sulfamide hydrochloride] | < 1000
CC(NS(N)(=O)=O)c1ccc(-c2ncnc3[nH]ccc23)cc1 (stereo not shown) [Example 27, N-(1-(4-(7H-pyrrolo[2,3-d]pyrimidin-4-yl)phenyl)ethyl)sulfamide hydrochloride] | < 1000
NS(=O)(=O)NCc1ccc(-c2ncnc3[nH]ccc23)cc1F [Example 30, N-(2-fluoro-4-(7H-pyrrolo[2,3-d]pyrimidin-4-yl)benzyl)sulfamide hydrochloride] | 1000 to 10000
NS(=O)(=O)NCc1cccc(-c2ncnc3[nH]ccc23)c1 [Example 34, N-(3-(7H-pyrrolo[2,3-d]pyrimidin-4-yl)benzyl)sulfamide hydrochloride] | 1000 to 10000
NS(=O)(=O)N1CCc2cc(-c3ncnc4[nH]ccc34)ccc2C1 [Example 42, 6-(7H-pyrrolo[2,3-d]pyrimidin-4-yl)-3,4-dihydroisoquinoline-2(1H)-sulfonamide hydrochloride] | 1000 to 10000
CSc1nc(N2CCC(CCNS(N)(=O)=O)CC2)c2cc[nH]c2n1 [Example 53, N-(2-(1-(2-(methylthio)-7H-pyrrolo[2,3-d]pyrimidin-4-yl)piperidin-4-yl)ethyl)sulfamide] | > 10000
Cc1c[nH]c2ncnc(N3CCC(CN)CC3)c12 [Example 63, (1-(5-methyl-7H-pyrrolo[2,3-d]pyrimidin-4-yl)piperidin-4-yl)methenamine hydrochloride] | > 10000
NCC1CCN(c2ncnc3[nH]ccc23)CC1 [Example 65, (1-(7H-pyrrolo[2,3-d]pyrimidin-4-yl)piperidin-4-yl)methenamine hydrochloride] | 1000 to 10000
c1nc(N2CCC3(CCNC3)CC2)c2cc[nH]c2n1 [Example 66, 8-(7H-pyrrolo[2,3-d]pyrimidin-4-yl)-2,8-diazaspiro[4.5]decane hydrochloride] | > 10000
NCC1CCN(c2ncnc3c2ccn3-c2ccco2)CC1 [Example 69, (1-(7-(furan-2-yl)-7H-pyrrolo[2,3-d]pyrimidin-4-yl)piperidin-4-yl)methenamine hydrochloride] | 1000 to 10000
NS(=O)(=O)NC1CCN(c2ncnc3[nH]ccc23)CC1 [Example 79, N-(1-(7H-pyrrolo[2,3-d]pyrimidin-4-yl)piperidin-4-yl)sulfamide hydrochloride] | 1000 to 10000
NS(=O)(=O)N1CCC2(CCN(c3ncnc4[nH]ccc34)CC2)C1 [Example 80, 8-(7H-pyrrolo[2,3-d]pyrimidin-4-yl)-2,8-diazaspiro[4.5]decane-2-sulfamide hydrochloride] | < 1000

Next, values leading:

IC50 [nM] | SMILES
< 1000 | NS(=O)(=O)NCC1CCN(c2ncnc3[nH]ccc23)CC1 [Example 43, N-((1-(7H-pyrrolo[2,3-d]pyrimidin-4-yl)piperidin-4-yl)methyl)sulfamide]
< 1000 | Cn1ccc2c(N3CCC(CNS(N)(=O)=O)CC3)ncnc21 [Example 44, N-((1 (7-methyl-7H-pyrrolo[2,3-d]pyrimidin-4-yl)piperidin-4-yl)methyl)sulfamide]
< 1000 | NS(=O)(=O)NCC1CCN(c2ncnc3c2ccn3-c2ccccc2)CC1 [Example 45, N-((1-(7-phenyl-7H-pyrrolo[2,3-d]pyrimidin-4-yl)piperidin-4-yl)methyl)sulfamide]
< 1000 | NS(=O)(=O)NCC1CCN(c2ncnc3c2ccn3C2CC2)CC1 [Example 46, N-((1-(7-cyclopropyl-7H-pyrrolo[2,3-d]pyrimidin-4-yl)piperidin-4-yl)methyl)sulfamide]
> 10000 | CC(C)n1ccc2c(N3CCC(CNS(N)(=O)=O)CC3)ncnc21 [Example 47, N-((1-(7-isopropyl-7H-pyrrolo[2,3-d]pyrimidin-4-yl)piperidin-4-yl)methyl)sulfamide]
< 1000 | Cc1cc2c(N3CCC(CNS(N)(=O)=O)CC3)ncnc2[nH]1 [Example 51, N-((1-(6-methyl-7H-pyrrolo[2,3-d]pyrimidin-4-yl)piperidin-4-yl)methyl)sulfamide]
< 1000 | NS(=O)(=O)NCCC1CCN(c2ncnc3[nH]ccc23)CC1 [Example 54, N-(2-(1-(7H-pyrrolo[2,3-d]pyrimidin-4-yl)piperidin-4-yl)ethyl)sulfamide]
< 1000 | Cc1c[nH]c2ncnc(N3CCC(CNS(N)(=O)=O)CC3)c12 [Example 78, N-((1-(5-methyl-7H-pyrrolo[2,3-d]pyrimidin-4-yl)piperidin-4-yl)methyl)sulfamide hydrochloride]
< 1000 | CC(NS(N)(=O)=O)C1CCN(c2ncnc3[nH]ccc23)CC1 (stereo not shown) [Example 82, N-(1-(1-(7H-pyrrolo[2,3-d]pyrimidin-4-yl)piperidin-4-yl)ethyl)sulfamide hydrochloride]
< 1000 | NS(=O)(=O)NCC1CCN(c2ncnc3c2ccn3-c2ccco2)CC1 [Example 83, N-((1-7-(furan-2-yl)-7H-pyrrolo[2,3-d]pyrimidin-4-yl)piperidin-4-yl)methyl)sulfamide hydrochloride]
1000 to 10000 | NS(=O)(=O)NCC1CCN(c2ncnc3c2ccn3-c2cccnc2)CC1 [Example 84, N-((1-(7-(pyridin-3-yl)-7H-pyrrolo[2,3-d]pyrimidin-4-yl)piperidin-4-yl)methyl)sulfamide hydrochloride]
1000 to 10000 | O=S(=O)(NCC1CCN(c2ncnc3[nH]ccc23)CC1)c1cccs1 [Example 88, N-((1-(7H-pyrrolo[2,3-d]pyrimidin-4-yl)piperidin-4-yl)methyl)thiophene-2-sulfonamide]
